The values that follow come from patent US6818642B2, “Benzylaminopyrimidines” (Altana Pharma AG, priority 2001, dated 2004).

The term melting point denotes the temperature of the solid-liquid transition. What is called MIC50 is the lowest concentration that inhibits either 50% of growth or 50% of the strains tested, depending on the study. For orientation: pIC50 means the IC50 on a negative log10 scale, so that one unit is a factor of ten. A low value points to a high IC50.

pIC50: −log10 of the molar value. Values after ≈ are worked out from the molar mass of the structure shown.

Data set [1] concerns Helicobacter pylori. As to the kind of experiment: Agar dilution test (inhibition of growth in vitro on agar plates). It counts as cell-based. As to conditions: Columbia agar (Oxoid), growth period of 4 days; for MIC50: Helicobacter pylori, 96 h, read-out: approx. MIC50. In general terms: In agar dilution, organisms are placed on agar that contains the substance at set levels.

The subject of data set [2] is Helicobacter pylori. As to the kind of experiment: Helicobacter pylori eradication rate in vivo (urease test). Conditions: infected gerbils, 50 mg/kg by tube, 3 × daily, 4 days; urease test of antrum tissue four weeks after last treatment. As to the method:
Determination of the Helicobacter Pylori Eradication Rate in Vivo
Gerbils were infected on days 1, 3, and 5 with a suspension containing 108-109 Helicobacter pylori bacteria per animal. […] Beginning on day 36, the gerbils were treated on four successive days—three times daily at 07.30, 11.30, and 15.00 hours—with a placebo or the test substance, using a tube. Four weeks after the last treatment, the gerbils were sacrificed using CO2. A tissue sample of the antrum was introduced into the urease test solution and incubated at 37° C. for 24 hours. Changes in color of the solution from yellow to violet, which resulted from the increase in pH caused by the formation of NH3 from the urease, were detected. The eradication rate was calculated as the percentage of animals whose stomach tissue sample gave a negative urease test.
Conditions Under Which the Animals Were Kept:
Groups of 5-10 gerbils per cage (type IV Macrolon cage) were kept at an ambient temperature of 23±2° C. and a relative humidity of 50±10%. They were fed ad libitum with NAFAG feed No. 9439 for rats and mice (NAFAG AG, CH-2900, Gosseu, Switzerland) and had free access to mains water during the experiment.
The substances administered are referenced in table C below using numbers which correspond to the numbers of the compounds in the examples.

Another data set relates to E. coli. As to the kind of experiment: Inhibition of growth in vitro in liquid culture (NanoOrange fluorescence). Type of data set: cell-based. Conditions: Escherichia coli, 24 hours incubation. Here is the method: (§1) Determination of the Inhibition of Growth in Vitro in Liquid Culture
(§2) The principle of the technique is based on the detection of the multiplication of, for example, Helicobacter pylori in liquid culture using BHI/6% FCS medium. The method ensures linear fluorescence increase in the range from […].
(§3) The bacterial culture was distributed with an initial density of 1-3×10^8 microbes/ml in a 96-well MTP in 100 μl aliquots. The test substances in a concentration of […] in a final concentration of 1% DMSO were added to these minicultures. These MTPs were then incubated under microaerobic conditions (Anaerokult, Merck) and with shaking at 37° C. for 24 hours. Following the 24-hour incubation, the minicultures were transferred to filter MTPs and washed twice with isotonic buffer (filtered off with suction, taken up, shaken) and finally were taken up in double-distilled water and shaken, and an aliquot was transferred to a new MTP. This aliquot was admixed with the fluorescent dye NanoOrange (Molecular Probes) in accordance with the manufacturer's instructions. Development of protein detection took piece at 90° C. in a pressure-secured sandwich technique. After the plates had cooled, the fluorescence was measured on a plate reader at 549 nm. […] This calculation was made using origin, sigmoidal curve adaptation by means of the ‘logistic’ algorithm.

Data set [3] relates to Helicobacter pylori. The data set is described as above. It counts as cell-based. As to conditions: BHI/6% FCS medium, 24 hours, 37° C., microaerobic, 1% DMSO. Here is the method:
as §1, §2, §3

For `Cc1nc(C)c(Cl)c(NCc2ccc(Oc3ccc4ncc([N+](=O)[O-])n4n3)c(O)c2)n1` [Compound 18, (5-Chloro-2,6-dimethyl-pyrimidin-4-yl)-[4-(3-nitro-imidazo[1,2-b]pyridazin-6-yloxy)-5-hydroxy-benzyl]-amine], the melting point was > 114 °C.
In turn, `Cc1nc(C)c(Cl)c(NCc2ccc(Oc3ccc4ncc([N+](=O)[O-])n4n3)c(OCC(F)(F)F)c2)n1` [Compound 12, (5-Chloro-2,6-dimethylpyrimidin-4-yl)[4-(3-nitroimidazo[1,2-b]pyridazin-6-yloxy)-3-(2,2,2-trifluoroethoxy)benzyl]amine] registered a melting point of 185 to 188 °C. Also, the MIC50 with Helicobacter pylori [1] is ~0.01 µg/mL (≈ 0.0191 µM).
The corresponding values for `Cc1nc(C)c(Cl)c(NCc2cccc(Oc3ccc4ncc([N+](=O)[O-])n4n3)c2)n1` [Compound 3, (5-Chloro-2,6-dimethylpyrimidin-4-yl)[3-(3-nitroimidazo[1,2-b]pyridazin-6-yloxy)benzyl]-amine] are 222 to 223 °C and ~0.05 µg/mL (≈ 0.117 µM).
`COc1cc(CNc2nc(C)nc(C)c2Cl)cc(Br)c1Oc1ccc2ncc([N+](=O)[O-])n2n1` [Compound 16, [3-Bromo-5-methoxy-4-(3-nitroimidazo[1,2-b]pyridazin-6-yloxy)benzyl](5-chloro-2,6-dimethyl-pyrimidin-4-yl)amine]: the melting point lay in the range of 230 to 234 °C. In the data set on Helicobacter pylori [2], this compound displayed an Eradication rate of 100%.
As for `Cc1nc(C)c(Cl)c(NCc2ccc(Oc3ccc4ncc([N+](=O)[O-])n4n3)cc2F)n1` [Compound 11, (5-Chloro-2,6-dimethylpyrimidin-4-yl)[2-fluoro-4-(3-nitroimidazo[1,2-b]pyridazin-6-yloxy)-benzyl]amine], the melting point lay in the range of 147 to 149 °C. Besides, the MIC50 with Helicobacter pylori [1] was ~0.01 µg/mL (≈ 0.0225 µM). Further, the Eradication rate with Helicobacter pylori [2] is recorded as 100%.
Turning to `Cc1nc(C)c(Cl)c(NCc2ccc(Oc3ccc4ncc([N+](=O)[O-])n4n3)cc2)n1` [Compound 1, (5-Chloro-2,6-dimethylpyrimidin-4-yl)[4-(3-nitroimidazo[1,2-b]pyridazin-6-yloxy)benzyl]amine], the melting point came to 203 °C. Moreover, the MIC50 in the data set with Helicobacter pylori [1] is ~0.005 µg/mL (≈ 0.0117 µM). In the data set on Helicobacter pylori [2], the Eradication rate is recorded as 100%. Also, the pIC50 with E. coli was < 6.00. In the data set with Helicobacter pylori [3], this compound gave a pIC50 of 7.59.
For the compound `O=[N+]([O-])c1cnc2ccc(Oc3ccc(CNc4ncncc4Cl)cc3)nn12` [Compound 17, (5-Chloro-pyrimidin-4-yl)-[4-(3-nitro-imidazo[1,2-b]pyridazin-6-yloxy)-benzyl]-amine], the melting point amounted to 185 °C.
On the same count and under the same terms, for `Cc1nc(C)c(Cl)c(NCc2ccc(Oc3ccc4ncc([N+](=O)[O-])n4n3)c(OCC3CC3)c2)n1` [Compound 6, (5-Chloro-2,6-dimethylpyrimidin-4-yl)[3-cyclopropylmethoxy-4-(3-nitroimidazo[1,2-b]pyridazin-6-yloxy)benzyl]amine] the value was 178 to 180 °C.
Turning to `Cc1nc(C)c(Cl)c(NCc2ccc(Oc3ccc4ncc([N+](=O)[O-])n4n3)c(OC(F)F)c2)n1` [Compound 8, (5-Chloro-2,6-dimethylpyrimidin-4-yl)[3-(1,1-difluoromethoxy)-4-(3-nitroimidazo[1,2-b]pyridazin-6-yloxy)benzyl]amine], the melting point is 191 to 193.5 °C. Further, the MIC50 with Helicobacter pylori [1] was ~0.01 µg/mL (≈ 0.0203 µM). Besides, the Eradication rate in the data set with Helicobacter pylori [2] amounted to 100%.
`Cc1nc(C)c(Cl)c(NCc2ccc(Oc3ccc4ncc([N+](=O)[O-])n4n3)c(C)c2)n1` [Compound 9, (5-Chloro-2,6-dimethylpyrimidin-4-yl)[3-methyl-4-(3-nitroimidazo[1,2-b]pyridazin-6-yloxy)-benzyl]amine] came in with a melting point of 183 to 185 °C. Besides, the MIC50 in the data set on Helicobacter pylori [1] is ~0.001 µg/mL (≈ 0.00227 µM).
For “(5-Chloro-2,6-dimethylpyrimidin-4-yl)[4-methoxy-3-nitroimidazo[1,2-b]pyridazin-6-yloxy)-benzyl]amino [Compound 5]”, in the data set with Helicobacter pylori [1], the “approx. MIC50” value was ~0.05 mg/L.
As to `Cc1nc(C)c(Cl)c(NCc2cc(Oc3ccc4ncc([N+](=O)[O-])n4n3)ccc2F)n1` [Compound 15, (5-Chloro-2,6-dimethylpyrimidin-4-yl)[2-fluoro-5-(3-nitroimidazo[1,2-b]pyridazin-6-yloxy)-benzyl]amine], in the data set on Helicobacter pylori [1], the MIC50 was ~0.001 µg/mL (≈ 0.00225 µM).
In turn, `Cc1nc(C)c(Cl)c(NCc2ccc(Oc3ccc4ncc([N+](=O)[O-])n4n3)c(F)c2)n1` [Compound 10, (5-Chloro-2,6-dimethylpyrimidin-4-yl)[3-fluoro-4-(3-nitroimidazo[1,2-b]pyridazin-6-yloxy)-benzyl]amine] displayed a melting point of 193 to 196 °C. Besides, in the data set with Helicobacter pylori [1], the MIC50 is ~0.01 µg/mL (≈ 0.0225 µM). In the data set with Helicobacter pylori [2], this compound returned an Eradication rate of 100%.
Take `Cc1nc(C)c(Cl)c(NCc2cc(O)cc(Oc3ccc4ncc([N+](=O)[O-])n4n3)c2)n1` [Compound 14, 3-[(5-Chloro-2,6-dimethylpyrimidin-4-ylamino)methyl]-5-(3-nitroimidazo[1,2-b]pyridazin-6-yloxy)phenol]: the melting point stood at 263 °C. In addition, in the data set with Helicobacter pylori [1], the MIC50 is ~0.01 µg/mL (≈ 0.0226 µM).
As to `COc1cc(CNc2nc(C)nc(C)c2Cl)cc(Oc2ccc3ncc([N+](=O)[O-])n3n2)c1` [Compound 13, (5-Chloro-2,6-dimethylpyrimidin-4-yl)[3-methoxy-5-(3-nitroimidazo[1,2-b]pyridazin-6-yloxy)-benzyl]amine], the melting point was in the range of 198 to 199 °C.
`COc1cc(CNc2nc(C)nc(C)c2Cl)ccc1Oc1ccc2ncc([N+](=O)[O-])n2n1` [Compound 4, (5-Chloro-2,6-dimethylpyrimidin-4-yl)[3-methoxy-4-(3-nitroimidazo[1,2-b]pyridazin-6-yloxy)-benzyl]amine] gave a melting point of 229 to 232 °C. In addition, the MIC50 with Helicobacter pylori [1] is ~0.001 µg/mL (≈ 0.00219 µM). Besides, the Eradication rate in the data set with Helicobacter pylori [2] is listed as 100%.
